Measurements as given in patent US20090253719A1, “CRYSTALLINE SALT FORMS OF ANTIFOLATE COMPOUNDS AND METHODS OF MANUFACTURING THEREOF” (Chelsea Therapeutics, Inc., priority 2008, published 2009).
pEC50: −log10 of the molar value.

Experiments:
[1] = Method: A salt screen of this compound was conducted with various pharmaceutically acceptable counterions to analyze aqueous solubility of the formed salts. Formed solids suspected of forming salts were analyzed by X-ray powder diffraction (XRPD).
CCRF-CEM cells = test: Growth inhibition of CCRF-CEM cells, continuous (120 hr) drug exposure; assay type: cell-based; conditions: Homo sapiens, continuous 120 hr exposure
Method: The human T-lymphoblastic leukemia cell line CCRF-CEM (described in Foley G F, et al., Cancer 1965; 18:522-9) was cultured as described in McCloskey D E, et al., J Biol Chem 1991; 266:6181-7 (both of which are incorporated herein by reference in their entirety) and verified to be negative for Mycoplasma contamination (Mycoplasma Plus PCR primers, Stratagene, La Jolla, Calif.).

[2] = Plasma concentration after oral L- or D-CH-1504 in non-fasted female Lewis rats; assay type: in vivo
Method: L- or D-CH-1504 was administered once orally to non-fasted female Lewis rats at a dose of 10 mg/kg (vehicle: 0.11% carboxymethylcellulose/0.45% TWEEN 80, formulation: suspension). About 750 μL of blood was collected from the jugular vein at 1 and 3 hours after administration. And then, whole of blood was collected from the femoral vein under diethyl ether anesthesia at 6 hours after administration. The collected blood was immediately centrifuged to obtain a plasma sample. L- and D-CH-1504 were extracted from the plasma by solid-phase extraction and were then determined with a LC/MS/MS.

[3] = Hygroscopicity study (storage at controlled relative humidity); assay type: physicochemical; conditions: 75% relative humidity for five days
Source text: Hygroscopicity and approximate solubility in aqueous and buffered solutions of ammonium, besylate, calcium, esylate, sulfate, HCl, mesylate, napsylate, potassium, disodium, and tosylate salts were compared. In the hygroscopicity study, the salts were subjected to 75% relative humidity for five days.
An amorphous form was also generated. […] As described above, disodium salt Form A was a crystalline solid obtained using a water/IPA system or a water/acetone system. […] Heating was continued to achieve a temperature of 90° C. Crystallinity was not regained upon cooling to ambient.

For `C=C(CC(NC(=O)c1ccc(CCc2ccc3nc(N)nc(N)c3c2)cc1)C(=O)O)C(=O)O` (racemic) [CH-1504, 2-{4-[2-(2,4-diamino-quinazolin-6-yl)-ethyl]-benzoylamino}-4-methylene-pentanedioic acid], the “solubility of free acid form” value [1] was “poor solubility”, the pEC50 (CCRF-CEM cells) was 8.07 and the isomerization in vivo ([2]; by 6 hours after administration of each enantiomer, all samples) was “could not be confirmed”.

For `C=C(C[C@@H](NC(=O)c1ccc(CCc2ccc3nc(N)nc(N)c3c2)cc1)C(=O)O)C(=O)O` [D-CH-1504], the pEC50 (CCRF-CEM cells) was 7.54, the “Plasma conc. of D-CH-1504” value ([2]; 1 h after 10 mg/kg oral, non-fasted female Lewis rats, individual animals) was 11.0 ng/mL and the concentration at 3 h ([2]; female, Lewis, rat, plasma, oral, 10 mg/kg, 3 h after 10 mg/kg oral, non-fasted female Lewis rats, individual animals, read-out: Plasma conc. of D-CH-1504) was 14.3 ng/mL. For the same compound, the concentration at 6 h ([2]; female, Lewis, rat, plasma, oral, 10 mg/kg, 6 h after 10 mg/kg oral, non-fasted female Lewis rats, individual animals, read-out: Plasma conc. of D-CH-1504) was 8.34 ng/mL.

`C=C(C[C@H](NC(=O)c1ccc(CCc2ccc3nc(N)nc(N)c3c2)cc1)C(=O)O)C(=O)O` [L-CH-1504, (S)-2-{4-[2-(2,4-diamino-quinazolin-6-yl)-ethyl]-benzoylamino}-4-methylene-pentanedioic acid] gave a pEC50 (CCRF-CEM cells) of 8.21.

With `CN(Cc1cnc2nc(N)nc(N)c2n1)c1ccc(C(=O)NC(CCC(=O)O)C(=O)O)cc1` (stereo not shown) [MTX, methotrexate, reference compound] the pEC50 (CCRF-CEM cells) was 7.82.

For `C=C(CC(NC(=O)c1ccc(CCc2ccc3nc(N)nc(N)c3c2)cc1)C(=O)O)C(=O)O.O=S(=O)(O)c1ccc2ccccc2c1` (stereo not shown) [napsylate salt], the hygroscopicity study outcome [3] was “remained unchanged”.
